Measurements reported in patent US8653263B2 (Janssen Pharmaceutica, priority 2009, dated 2014).

target: human orexin-2 receptor (Homo sapiens (Human), UniProt O43614); experiment: Human orexin 2 receptor radioligand binding ([3H]-EMPA competition); settings: HEK293 cells stably expressing human orexin-2 receptor; [3H]-EMPA 5 nM final; apparent Ki=IC50/(1+C/Kd), Kd=2 nM; read-out: OR 2 Ki
Sequence (O43614 whole entry): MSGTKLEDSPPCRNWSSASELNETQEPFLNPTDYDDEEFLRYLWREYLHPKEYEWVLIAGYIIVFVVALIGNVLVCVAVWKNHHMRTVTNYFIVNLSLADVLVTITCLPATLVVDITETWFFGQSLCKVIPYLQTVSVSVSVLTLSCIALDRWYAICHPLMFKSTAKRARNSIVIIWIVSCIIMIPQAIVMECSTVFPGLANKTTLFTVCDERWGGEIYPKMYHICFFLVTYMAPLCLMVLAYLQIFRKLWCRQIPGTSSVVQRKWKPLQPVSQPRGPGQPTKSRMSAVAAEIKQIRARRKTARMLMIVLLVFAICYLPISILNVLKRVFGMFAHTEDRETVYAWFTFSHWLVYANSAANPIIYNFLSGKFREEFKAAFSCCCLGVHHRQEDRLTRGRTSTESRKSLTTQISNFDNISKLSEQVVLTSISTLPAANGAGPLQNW

Compound | Ki [µM]
COc1ccc2nc(N3CC4CN(C(=O)c5ccccc5-c5ccccc5)CC4C3)sc2c1 (stereo not shown) [Example 187, Biphenyl-2-yl-[5-(6-methoxy-benzothiazol-2-yl)-hexahydro-pyrrolo[3,4-c]pyrrol-2-yl]-methanone] | 2.28
Cc1ccc2nc(N3CC4CN(C(=O)c5ccccc5-c5ccccc5)CC4C3)sc2c1 (stereo not shown) [Example 188, Biphenyl-2-yl-[5-(6-methyl-benzothiazol-2-yl)-hexahydro-pyrrolo[3,4-c]pyrrol-2-yl]-methanone] | 2.61
COc1cccc(OC)c1C(=O)N1CC2CN(c3nc4ccc(Cl)cc4s3)CC2C1 (stereo not shown) [Example 189, [5-(6-Chloro-benzothiazol-2-yl)-hexahydro-pyrrolo[3,4-c]pyrrol-2-yl]-(2,6-dimethoxy-phenyl)-methanone] | 1.6
O=C(c1ccccc1-c1ccccc1)N1CC2CN(c3nc4ccc(Cl)cc4s3)CC2C1 (stereo not shown) [Example 190, Biphenyl-2-yl-[5-(6-chloro-benzothiazol-2-yl)-hexahydro-pyrrolo[3,4-c]pyrrol-2-yl]-methanone] | 1.3
COc1ccc(C(=O)N2CC3CN(c4cnc5ccccc5n4)CC3C2)c(OC)c1 (stereo not shown) [Example 191, (2,4-Dimethoxy-phenyl)-(5-quinoxalin-2-yl-hexahydro-pyrrolo[3,4-c]pyrrol-2-yl)-methanone] | 2.66
COc1cccc(OC)c1C(=O)N1CC2CN(c3nc4ccccc4o3)CC2C1 (stereo not shown) [Example 192, (5-Benzooxazol-2-yl-hexahydro-pyrrolo[3,4-c]pyrrol-2-yl)-(2,6-dimethoxy-phenyl)-methanone] | 1.02
Cc1ccc(-c2ccccc2C(=O)N2CC3CN(c4cnc5ccccc5n4)CC3C2)cc1 (stereo not shown) [Example 193, (4′-Methyl-biphenyl-2-yl)-(5-quinoxalin-2-yl-hexahydro-pyrrolo[3,4-c]pyrrol-2-yl)-methanone] | 1.16
O=C(c1ccccc1-c1ccc(C(F)(F)F)cc1)N1CC2CN(c3cnc4ccccc4n3)CC2C1 (stereo not shown) [Example 194, (5-Quinoxalin-2-yl-hexahydro-pyrrolo[3,4-c]pyrrol-2-yl)-(4′-trifluoromethyl-biphenyl-2-yl)-methanone] | 10
Cc1ccc(-c2ccccc2C(=O)N2CC3CN(c4nccc(-c5ccccc5)n4)CC3C2)cc1 (stereo not shown) [Example 195, (4′-Methyl-biphenyl-2-yl)-[5-(4-phenyl-pyrimidin-2-yl)-hexahydro-pyrrolo[3,4-c]pyrrol-2-yl]-methanone] | 1.1
O=C(c1ccccc1-c1ccc(C(F)(F)F)cc1)N1CC2CN(c3nccc(-c4ccccc4)n3)CC2C1 (stereo not shown) [Example 196, [5-(4-Phenyl-pyrimidin-2-yl)-hexahydro-pyrrolo[3,4-c]pyrrol-2-yl]-(4′-trifluoromethyl-biphenyl-2-yl)-methanone] | 10
COc1ccc(C(=O)N2CC3CN(c4cnc5ccccc5n4)CC3C2)c(C)c1 (stereo not shown) [Example 197, (4-Methoxy-2-methyl-phenyl)-(5-quinoxalin-2-yl-hexahydro-pyrrolo[3,4-c]pyrrol-2-yl)-methanone] | 1.16
O=C(c1ccccc1-c1cccc(Cl)c1)N1CC2CN(c3nccc(-c4ccccc4)n3)CC2C1 (stereo not shown) [Example 198, (3′-Chloro-biphenyl-2-yl)-[5-(4-phenyl-pyrimidin-2-yl)-hexahydro-pyrrolo[3,4-c]pyrrol-2-yl]-methanone] | 1.31
COc1ccnc(N2CC3CN(C(=O)c4ccccc4OC)CC3C2)n1 (stereo not shown) [Example 199, (2-Methoxy-phenyl)-[5-(4-methoxy-pyrimidin-2-yl)-hexahydro-pyrrolo[3,4-c]pyrrol-2-yl]-methanone] | 3.78
COc1ccccc1C(=O)N1CC2CN(c3nc(C)cc(C)n3)CC2C1 (stereo not shown) [Example 201, [5-(4,6-Dimethyl-pyrimidin-2-yl)-hexahydro-pyrrolo[3,4-c]pyrrol-2-yl]-(2-methoxy-phenyl)-methanone] | 1.37
Cc1cc(C)nc(N2CC3CN(C(=O)c4ccccc4C#N)CC3C2)n1 (stereo not shown) [Example 202, 2-[5-(4,6-Dimethyl-pyrimidin-2-yl)-hexahydro-pyrrolo[3,4-c]pyrrole-2-carbonyl]-benzonitrile] | 5
Cc1cc(C)nc(N2CC3CN(C(=O)c4cnnc5ccccc45)CC3C2)n1 (stereo not shown) [Example 203, Cinnolin-4-yl-[5-(4,6-dimethyl-pyrimidin-2-yl)-hexahydro-pyrrolo[3,4-c]pyrrol-2-yl]-methanone] | 5
Cc1cc(N2CC3CN(C(=O)c4cc(F)ccc4-c4ncccn4)CC3C2)nc(C(F)(F)F)n1 (stereo not shown) [Example 204, (5-Fluoro-2-pyrimidin-2-yl-phenyl)-[5-(6-methyl-2-trifluoromethyl-pyrimidin-4-yl)-hexahydro-pyrrolo[3,4-c]pyrrol-2-yl]-methanone] | 0.05
Cc1cc(C)nc(N2CC3CN(C(=O)c4ccccc4-n4ccnn4)CC3C2)n1 (stereo not shown) [Example 205, [5-(4,6-Dimethyl-pyrimidin-2-yl)-hexahydro-pyrrolo[3,4-c]pyrrol-2-yl]-(2-[1,2,3]triazol-1-yl-phenyl)-methanone] | 3.19
COc1cc(OC)nc(N2CC3CN(C(=O)c4ncccc4-c4ccccc4)CC3C2)n1 (stereo not shown) [Example 207, [5-(4,6-Dimethoxy-pyrimidin-2-yl)-hexahydro-pyrrolo[3,4-c]pyrrol-2-yl]-(3-phenyl-pyridin-2-yl)-methanone] | 9

Compound | Ki [µM]
Cc1cc(C)nc(N2CC3CN(C(=O)c4ncccc4-c4ccccc4)CC3C2)n1 (stereo not shown) [Example 208, [5-(4,6-Dimethyl-pyrimidin-2-yl)-hexahydro-pyrrolo[3,4-c]pyrrol-2-yl]-(3-phenyl-pyridin-2-yl)-methanone] | 2.1
CCCc1nc(C)cc(N2CC3CN(C(=O)c4ccccc4-n4nccn4)CC3C2)n1 (stereo not shown) [Example 209, [5-(6-Methyl-2-propyl-pyrimidin-4-yl)-hexahydro-pyrrolo[3,4-c]pyrrol-2-yl]-(2-[1,2,3]triazol-2-yl-phenyl)-methanone] | 9
Cc1nccc(N2CC3CN(C(=O)c4ccccc4-n4nccn4)CC3C2)n1 (stereo not shown) [Example 210, [5-(2-Methyl-pyrimidin-4-yl)-hexahydro-pyrrolo[3,4-c]pyrrol-2-yl]-(2-[1,2,3]triazol-2-yl-phenyl)-methanone] | 3
Cc1cncc(N2CC3CN(C(=O)c4ccccc4-n4nccn4)CC3C2)n1 (stereo not shown) [Example 211, [5-(6-Methyl-pyrazin-2-yl)-hexahydro-pyrrolo[3,4-c]pyrrol-2-yl]-(2-[1,2,3]triazol-2-yl-phenyl)-methanone] | 0.044
Cc1cnc(C)c(N2CC3CN(C(=O)c4cc(F)ccc4-c4ncccn4)CC3C2)n1 (stereo not shown) [Example 212, [5-(3,6-Dimethyl-pyrazin-2-yl)-hexahydro-pyrrolo[3,4-c]pyrrol-2-yl]-(5-fluoro-2-pyrimidin-2-yl-phenyl)-methanone] | 0.033
Cc1cnc(C)c(N2CC3CN(C(=O)c4ccccc4-c4ncn[nH]4)CC3C2)n1 (stereo not shown) [Example 213, [5-(3,6-Dimethyl-pyrazin-2-yl)-hexahydro-pyrrolo[3,4-c]pyrrol-2-yl]-[2-(2H-[1,2,4]triazol-3-yl)-phenyl]-methanone] | 0.056
O=C(c1ccccc1-n1nccn1)N1CC2CN(c3cc(C(F)(F)F)nc(N4CCCC4)n3)CC2C1 (stereo not shown) [Example 214, [5-(2-Pyrrolidin-1-yl-6-trifluoromethyl-pyrimidin-4-yl)-hexahydro-pyrrolo[3,4-c]pyrrol-2-yl]-(2-[1,2,3]triazol-2-yl-phenyl)-methanone] | 1.23
Cc1cc(C)nc(N2CC3CN(C(=O)c4cccc(C)c4C)CC3C2)n1 (stereo not shown) [Example 219, 2-[(2,3-Dimethylphenyl)carbonyl]-5-(4,6-dimethylpyrimidin-2-yl)octahydropyrrolo[3,4-c]pyrrole] | 0.404
Cc1cc(C)nc(N2CC3CN(C(=O)c4cccc(F)c4C)CC3C2)n1 (stereo not shown) [Example 220, 2-(4,6-Dimethylpyrimidin-2-yl)-5-[(3-fluoro-2-methylphenyl)carbonyl]octahydropyrrolo[3,4-c]pyrrole] | 0.5
Cc1cc(C)nc(N2CC3CN(C(=O)c4cc(F)ccc4C(F)(F)F)CC3C2)n1 (stereo not shown) [Example 221, 2-(4,6-Dimethylpyrimidin-2-yl)-5-{[5-fluoro-2-(trifluoromethyl)phenyl]carbonyl}octahydropyrrolo[3,4-c]pyrrole] | 2.21
COc1cc(Cl)ccc1C(=O)N1CC2CN(c3nc(C)cc(C)n3)CC2C1 (stereo not shown) [Example 222, 2-[(4-Chloro-2-methoxyphenyl)carbonyl]-5-(4,6-dimethylpyrimidin-2-yl)octahydropyrrolo[3,4-c]pyrrole] | 3.62
Cc1cc(C)nc(N2CC3CN(C(=O)c4cc(Cl)ccc4C)CC3C2)n1 (stereo not shown) [Example 223, 2-[(5-Chloro-2-methylphenyl)carbonyl]-5-(4,6-dimethylpyrimidin-2-yl)octahydropyrrolo[3,4-c]pyrrole] | 0.34
Cc1ccc(C)c(C(=O)N2CC3CN(c4nc(C)cc(C)n4)CC3C2)c1 (stereo not shown) [Example 224, 2-[(2,5-Dimethylphenyl)carbonyl]-5-(4,6-dimethylpyrimidin-2-yl)octahydropyrrolo[3,4-c]pyrrole] | 0.635
Cc1cc(C)nc(N2CC3CN(C(=O)c4c(C)cccc4C)CC3C2)n1 (stereo not shown) [Example 225, 2-[(2,6-Dimethylphenyl)carbonyl]-5-(4,6-dimethylpyrimidin-2-yl)octahydropyrrolo[3,4-c]pyrrole] | 0.423
Cc1cc(C)nc(N2CC3CN(C(=O)c4cc(F)ccc4C)CC3C2)n1 (stereo not shown) [Example 226, 2-(4,6-Dimethylpyrimidin-2-yl)-5-[(5-fluoro-2-methylphenyl)carbonyl]octahydropyrrolo[3,4-c]pyrrole] | 0.836
Cc1ccc(C(=O)N2CC3CN(c4nc(C)cc(C)n4)CC3C2)c(C)c1 (stereo not shown) [Example 227, 2-[(2,4-Dimethylphenyl)carbonyl]-5-(4,6-dimethylpyrimidin-2-yl)octahydropyrrolo[3,4-c]pyrrole] | 1.47
CCOc1ccc(OCC)c(C(=O)N2CC3CN(c4nc(C)cc(C)n4)CC3C2)c1 (stereo not shown) [Example 228, 2-[(2,5-Diethoxyphenyl)carbonyl]-5-(4,6-dimethylpyrimidin-2-yl)octahydropyrrolo[3,4-c]pyrrole] | 0.184
CCOc1cccc(OCC)c1C(=O)N1CC2CN(c3nc(C)cc(C)n3)CC2C1 (stereo not shown) [Example 229, 2-[(2,6-Diethoxyphenyl)carbonyl]-5-(4,6-dimethylpyrimidin-2-yl)octahydropyrrolo[3,4-c]pyrrole] | 0.319
